Key:
HCT-116 = assay: NCI-60 panel growth inhibition; format: cell-based; details: Homo sapiens, Colon Cancer, mutated RAS Yes
Source text: (§1) Table 1 summarizes KG5's effect in 60 NCI cancer cell lines: the NCI-60 panel showing the half maximal growth inhibitory concentration of KG5 and the RAS and BRAF status in 60 human cancer cell lines.

786-0 = assay: NCI-60 panel growth inhibition; format: cell-based; details: Homo sapiens, Renal Cancer, mutated RAS No, mutated BRAF No
Source text: as §1

HS 578T = assay: NCI-60 panel growth inhibition; format: cell-based; details: Homo sapiens, Breast Cancer, mutated RAS Yes, mutated BRAF No
Source text: as §1

NCI/ADR-RES = assay: NCI-60 panel growth inhibition; format: cell-based; details: Homo sapiens, Ovarian Cancer, mutated RAS No, mutated BRAF No
Source text: as §1

MCF7 = assay: NCI-60 panel growth inhibition; format: cell-based; details: Homo sapiens, Breast Cancer, mutated RAS No, mutated BRAF No
Source text: as §1

UO-31 = assay: NCI-60 panel growth inhibition; format: cell-based; details: Homo sapiens, Renal Cancer, mutated RAS No, mutated BRAF No
Source text: as §1

HL-60(TB) = assay: NCI-60 panel growth inhibition; format: cell-based; details: Homo sapiens, Leukemia, mutated RAS Yes, mutated BRAF No
Source text: as §1

HCC-2998 = assay: NCI-60 panel growth inhibition; format: cell-based; details: Homo sapiens, Colon Cancer, mutated RAS No, mutated BRAF No
Source text: as §1

MALME-3M = assay: NCI-60 panel growth inhibition; format: cell-based; details: Homo sapiens, Melanoma, mutated RAS No, mutated BRAF Yes
Source text: as §1

[1] = biological target: RAF dimerization (BRAF and CRAF) (Homo sapiens, UniProt P04049); assay: RAF dimerization, immunoblot of BRAF and CRAF immunoprecipitates from XPA-1 cells; format: cell-based; design: immunoblot analysis of BRAF and CRAF immunoprecipitates from XPA-1 cells; endogenous in cells; host or cells: XPA-1
Procedure: FIGS. 6 and 7 illustrate immunoblot analysis of CRAF immunoprecipitated from XPA-1 cells treated with KG5 and KG38.
FIG. 14 illustrates immunoblot analysis of BRAF and CRAF immunoprecipitates from XPA-1 cells treated with PD0325901, Sorafenib, L-779450, PLX4720, KG5 or KG1.
Immunoprecipitation and Immunoblot Analysis Cells were lysed in either NP40 lysis buffer (150 mM NaCl, 50 mM Tris Base pH 7.4, 1% NP40) or RIPA buffer (50 mM Tris pH 7.4, 100 mM NaCl, 0.1% SDS) supplemented with complete protease inhibitor mixture (Roche), 50 mM NaF and 1 mM Na3VO4 and centrifuged at 13,000×g for 10 min at 4° C. Protein concentration was determined by BCA assay. […] of protein were immunoprecipitated with […] of anti-Flag (Sigma), anti-CRAF (BD Pharmingen), anti-Plk1 (Abcam), anti-γ-Tubulin (sigma) or anti-cenpF (Santa Cruz) antibodies overnight at 4° C. followed by capture with 25 μl of protein A/G (Pierce). Beads were washed five times, eluted in boiling Laemmli buffer, resolved on 10% SDS-PAGE and immunoblotting was performed with anti-Plk1 antibody (Abcam), anti-CRAF antibody (BD Pharmingen), anti-Aurora A (Abcam), anti-phospho-S338 CRAF (Cell Signaling), anti-phospho-T210 Plk1 or anti-phospho-T288 Aurora A (Cell signaling) diluted 1:1000. For immunoblot analysis, […] of protein was boiled in […]

[2] = system: MDA-MB-231 human breast carcinoma cells; assay: Cells in pro-metaphase in orthotopic breast tumor xenografts; format: in vivo, mice; details: systemic KG5 50 mg/Kg, after three days
Source text: FIG. 34. CRAF is required for mitotic progression: (a) Cell cycle analysis of WT and CRAF−/− MEFs. Left graph, Cells in G2/M were quantified by flow cytometry. Right graph, Cells at pro-metaphase were quantified using confocal microscopy. Error bars represent s.d. (n=4); * two tailed p value=0.0079 (left graph) and p=0.0055 (right graph) using a Mann Whitney U test. (b) WT and CRAF−/− MEFs were synchronized at pro-metaphase with a thymidine-nocodazole block as described in these Methods, and subsequently released from the blockade and allowed to progress through mitosis. Quantification of cells in G2/M was performed by flow cytometry. Error bars represent s.d. (n=3). (c) Confocal microscopy images of WT and CRAF−/− cells progressing through mitosis at 0, 60 and 360 minutes after release from pro-metaphase blockade. Cells were stained for α-tubulin (in red) and DNA (TOPRO-3™ in blue). Scale bar, 10 μm. […] Cell cycle analysis and quantification of cells in G2/M was performed by flow cytometry. […] (e) Immunohistochemical staining of phospho-5338 CRAF and phospho-histone H3 (mitotic marker) in orthotopic breast and tumor xenografts untreated or treated systemically with KG5 (50 mg/Kg for 3 days Scale bar, 50 μm. […]. Circles indicate cells in pro-metaphase. Right, Quantification of cells in pro-metaphase. Error bars represent s.d. (n=12); * two tailed p value=0.006 using Student T test. […]

Chain of RAF dimerization (BRAF and CRAF) (P04049 whole entry): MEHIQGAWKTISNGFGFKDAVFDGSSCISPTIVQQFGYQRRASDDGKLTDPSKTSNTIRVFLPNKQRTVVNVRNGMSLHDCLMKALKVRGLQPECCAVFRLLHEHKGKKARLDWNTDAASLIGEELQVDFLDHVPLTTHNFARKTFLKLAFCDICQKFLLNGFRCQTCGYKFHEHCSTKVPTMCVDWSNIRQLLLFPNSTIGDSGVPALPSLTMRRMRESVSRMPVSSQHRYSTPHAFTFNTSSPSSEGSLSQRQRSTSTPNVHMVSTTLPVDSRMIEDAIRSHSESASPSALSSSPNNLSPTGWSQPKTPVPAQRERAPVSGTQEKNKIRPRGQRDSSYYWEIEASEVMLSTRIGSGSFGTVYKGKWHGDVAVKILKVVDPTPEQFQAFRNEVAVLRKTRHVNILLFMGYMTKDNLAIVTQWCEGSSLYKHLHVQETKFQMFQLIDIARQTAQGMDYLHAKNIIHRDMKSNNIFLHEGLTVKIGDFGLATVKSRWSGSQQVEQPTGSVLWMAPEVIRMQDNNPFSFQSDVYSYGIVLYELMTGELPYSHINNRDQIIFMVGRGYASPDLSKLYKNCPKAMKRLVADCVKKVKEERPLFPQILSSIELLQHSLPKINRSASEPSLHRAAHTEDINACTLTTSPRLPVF

CSc1nc(N)cc(Oc2ccc(-c3nnc(Nc4cccc(C(F)(F)F)c4)[nH]3)cc2)n1 [KG5]
GI50 (HCT-116): 457 nM
GI50 (786-0): 490 nM
GI50 (HS 578T): 437 nM
GI50 (NCI/ADR-RES): 437 nM
GI50 (MCF7): 355 nM
GI50 (UO-31): 513 nM
GI50 (HL-60(TB)): 407 nM
GI50 (HCC-2998): 1410 nM
GI50 (MALME-3M): 316 nM
RAF dimerization [1]: prevents RAF dimerization
cells at pro-metaphase in orthotopic breast tumor tissues [2]: accumulation of cells at pro-metaphase

Reference: patent US20130266636A1, “METHODS FOR BLOCKING CELL PROLIFERATION AND TREATING DISEASES AND CONDITIONS RESPONSIVE TO CELL GROWTH INHIBITION” (THE REGENTS OF THE UNIVERSITY OF CALIFORNIA, priority 2010, published 2013)
